Experimental data published in patent publication US20200223826A1, “Glucose-6-Phosphate Dehydrogenase (G6PD)-Modulating Agents And Methods Of Treating G6PD Deficiency” (The Board of Trustees of the Leland Stanford Junior …, priority 2017, published 2020).

Key:
WT G6PD = molecular target: T1, WT G6PD (Homo sapiens, UniProt P11413); experiment: WT G6PD enzyme activity, recombinant enzyme; assay type: biochemical
T1 construct: His (pET-28a) (N, cleaved yes); made in house; host or cells: E. coli C43 (DE3)
Experimental: Enzyme activity was measured by monitoring NADPH production, which was coupled with diaphorase converting resazurin to fluorescent resorufin (excitation at 565 nm and emission at 590 nm); fluorescent signal was thus proportional to G6PD activity. Assays were performed at 25° C. and run for 5 minutes in buffer containing 50 mM Tris (pH 7.4), 0.5 mM EDTA, 3.3 mM MgCl2, 1 U/ml diaphorase, 0.1 mM resazurin. 10 ng of recombinant enzymes or 10 μg of cell lysates was used for the assay with 10 μM NADP^+ (Sigma) as cofactor and 100 μM G6P (Sigma) as substrate. Steady-state kinetic parameters were obtained by varying concentrations of NADP^+ (0-10 μM) with a constant concentration of G6P (100 μM) and similarly for G6P (0-100 μM) with a constant concentration of NADP^+ (10 μM) with 10 ng of recombinant enzymes. Data analysis was performed using GraphPad Prism software v.6 (GraphPad Software, La Jolla, Calif. USA). Kinetic parameters were obtained by fitting the data to the Michaelis-Menten equation.

[1] = system: lymphocytes carrying the Canton variant; experiment: Viability of lymphocytes; assay type: cell-based, human; conditions: treatment with AG1 for 24 hours
Experimental: (§1) Cell viability was measured using a Cell-Counting Kit-8 (CCK-8, Dojindo), utilizing WST-8 [2-(2-methoxy-4-nitrophenyl)-3-(4-nitrophenyl)-5-(2,4-disulfophenyl)-2H-tetrazolium monosodium salt, according to the manufacturer's instructions. Cells were subjected to serum starvation for 48 hours before measurement. Cells in 100 μL of medium per well were treated with 10 μL of CCK-8 solution and incubated for 2 hours at 37° C. The absorbance was read at 450 nm. Viability of lymphocytes was measured by staining with a 0.4% solution of trypan blue in buffered isotonic salt solution (pH 7.2). The viability was calculated as the number of viable cells (non-stained by the dye) divided by the total number of cells within the grids on the hemacytometer. Cells were treated with 1 μM of the compound 24 hours before the measurement.

A- (V68M, N126D) G6PD = molecular target: T2, A- (V68M, N126D) G6PD (Homo sapiens, UniProt P11413, N126D/V68M); experiment: Native gel electrophoresis, dimerization of variant
T2 construct: His (pET-28a) (N, cleaved yes); made in house; host or cells: E. coli C43 (DE3)
Experimental: (§2) 200 ng of recombinant enzymes were incubated with the compound (varying in assays) for 10 minutes at room temperature. To prevent streaking and artifacts in native PAGE gel, the samples in a native state (no boiling of sample and no reducing agent in sample buffer) were electrophoresed by […]. Cross-linking assay was initiated by incubating 500 ng of recombinant enzymes in PBS with 0.1% of glutaraldehyde and different concentrations of NADP^+ (0, 10, 100, 1000 μM) or MgCl2 (0, 1, 10, 100 mM). The mixture was incubated for 10 minutes at room temperature, which was followed by the addition of 100 mM Tris (pH 8.0) at a final concentration to terminate the reaction. The samples were electrophoresed as described above.

Kaiping (R463H) G6PD = molecular target: T3, Kaiping (R463H) G6PD (Homo sapiens, UniProt P11413, R463H); experiment: as above
T3 construct: His (pET-28a) (N, cleaved yes); made in house; host or cells: E. coli C43 (DE3)
Experimental: as §2

[2] = molecular target: T4, Mediterranean (S188F) G6PD (Homo sapiens, UniProt P11413, S188F); experiment: as above
T4 construct: His (pET-28a) (N, cleaved yes); made in house; host or cells: E. coli C43 (DE3)
Experimental: as §2

[3] = molecular target: T5, G6PD in lymphocyte lysates carrying the Canton variant (Homo sapiens, UniProt P11413, R459L); experiment: G6PD activity in lymphocyte lysates; assay type: cell-based; conditions: in the presence of AG1
T5 construct: host or cells: lymphocytes from a G6PD-deficient subject
Experimental: Lymphocytes derived from a normal subject (HG 00866) and a G6PD-deficient subject carrying Canton variant in G6PD (HG 02367) were purchased from Coriell Institute and cultured in RPMI 1640 supplemented with 15% fetal bovine serum (FBS), 100 U/ml penicillin, and 100 μg/ml streptomycin. An SH-SY5Y neuroblastoma cell line was cultured in Dulbecco's Modification of Eagle's Medium/Ham's F-12 50/50 Mix supplemented with 10% FBS, 100 U/ml penicillin, and 100 μg/ml streptomycin. A G6PD-deficient subject-derived fibroblast cell line carrying Mediterranean variant and normal fibroblast cell line as control were purchased from Coriell Institute (GM 01152) and ThermoFisher Scientific (C0135C), respectively, and cultured in minimum essential medium supplemented with 15% FBS, 100 U/ml penicillin, and 100 μg/ml streptomycin. All the cell lines were maintained at 37° C. in a humidified incubator with an atmosphere of 5% of CO2 and 95% air.
Enzyme activity was measured by monitoring NADPH production, which was coupled with diaphorase converting resazurin to fluorescent resorufin (excitation at 565 nm and emission at 590 nm); fluorescent signal was thus proportional to G6PD activity. Assays were performed at 25° C. and run for 5 minutes in buffer containing 50 mM Tris (pH 7.4), 0.5 mM EDTA, 3.3 mM MgCl2, 1 U/ml diaphorase, 0.1 mM resazurin. […]

[4] = system: lymphocytes carrying the Canton variant; experiment: Glutathione (GSH) measurement in lymphocytes; assay type: cell-based, human; conditions: treatment with AG1 for 24 hours
Experimental: Total glutathione level was measured using a Total Glutathione Quantification Kit (Dojindo), according to the manufacturer's instructions. The assay utilized DTNB (5,5′-dithio-bis-(2-nitrobenzoic acid)) that reacts with glutathione to produce 5-mercapto-2-nitrobenzoic acid, a yellow colored product. Cells were subjected to serum starvation (50-75%) for 48 hours to induce oxidative stress and treated with the compound for 24 hours before measurement. The absorbance was read at 412 nm.

[5] = system: SH-SY5Y cells expressing the Canton variant; experiment: Viability of SH-SY5Y cells expressing Canton variant; assay type: cell-based, human
Experimental: Prior to the cellular-based assays using SH-SH5Y cells, duration of overexpression of WT G6PD and Canton variant was examined by transfecting the cells seeded in a 12-well plate. The genes encoding human WT G6PD and Canton variant were first PCR-amplified, which was then inserted into pcDNA 3.1/myc-His C (ThermoFisher Scientific) using HindIII and XhoI. 0.5 μg of cDNA and 1.5 μg of lipofectamine (Invitrogen) were diluted in 50 μL of Opti-MEM medium respectively and incubated for 5 minutes. The diluted DNA was combined with diluted lipofectamine, which was followed by incubation for 20 minutes prior to the addition to cells.
as §1, with “Cells were treated with 1 μM of the compound 24 hours before the measurement.” left out

[6] = molecular target: aldehyde dehydrogenase 2 (ALDH2) (Homo sapiens, UniProt P05091); experiment: Selectivity: dimerization or activity of other NAD/NADP+-dependent enzymes; assay type: biochemical
SH-SY5Y cells = experiment: Cell viability assay, SH-SY5Y cells, with and without G6PD siRNA knockdown; assay type: cell-based, human
Experimental: as §1
Endogenous G6PD was knocked down in each cell line as follows; 2 pmol of siRNA G6PD (Santa Cruz Biotechnology) and 0.5 μg lipofectamine (Invitrogen) were diluted in 10 μL of Opti-MEM medium respectively and incubated for 5 minutes. The diluted siRNA was combined with diluted lipofectamine, which was followed by additional incubation for 20 minutes prior to the addition to cells in a 96-well plate.

T4 sequence (P11413 whole entry S188F): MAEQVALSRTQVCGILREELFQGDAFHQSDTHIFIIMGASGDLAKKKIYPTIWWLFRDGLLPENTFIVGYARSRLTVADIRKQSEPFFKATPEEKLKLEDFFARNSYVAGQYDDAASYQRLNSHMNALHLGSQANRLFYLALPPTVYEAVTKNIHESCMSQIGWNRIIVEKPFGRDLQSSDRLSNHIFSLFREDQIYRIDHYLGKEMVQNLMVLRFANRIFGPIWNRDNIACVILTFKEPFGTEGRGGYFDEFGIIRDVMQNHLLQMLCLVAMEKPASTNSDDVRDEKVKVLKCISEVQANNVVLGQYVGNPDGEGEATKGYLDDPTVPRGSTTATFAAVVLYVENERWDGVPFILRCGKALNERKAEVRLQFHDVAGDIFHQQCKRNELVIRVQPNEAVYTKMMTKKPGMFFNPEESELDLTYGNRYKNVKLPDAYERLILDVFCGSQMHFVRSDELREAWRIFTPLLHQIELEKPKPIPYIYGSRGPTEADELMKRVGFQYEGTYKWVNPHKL
T5 sequence (P11413 2-515 R459L limits assumed): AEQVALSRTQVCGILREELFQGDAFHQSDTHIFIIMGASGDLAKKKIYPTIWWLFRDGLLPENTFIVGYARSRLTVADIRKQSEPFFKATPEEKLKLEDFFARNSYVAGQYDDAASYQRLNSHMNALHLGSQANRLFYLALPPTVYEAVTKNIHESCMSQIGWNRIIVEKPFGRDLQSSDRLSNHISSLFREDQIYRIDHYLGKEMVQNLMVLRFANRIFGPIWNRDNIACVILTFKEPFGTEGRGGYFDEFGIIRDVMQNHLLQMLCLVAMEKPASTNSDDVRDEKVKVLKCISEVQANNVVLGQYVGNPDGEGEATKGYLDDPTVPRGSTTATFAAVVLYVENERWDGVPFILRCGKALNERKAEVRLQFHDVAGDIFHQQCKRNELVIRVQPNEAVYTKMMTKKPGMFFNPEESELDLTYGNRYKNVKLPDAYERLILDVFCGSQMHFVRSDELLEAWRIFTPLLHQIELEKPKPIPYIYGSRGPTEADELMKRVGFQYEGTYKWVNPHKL
Sequence of aldehyde dehydrogenase 2 (ALDH2) (P05091 18-517, species assumed): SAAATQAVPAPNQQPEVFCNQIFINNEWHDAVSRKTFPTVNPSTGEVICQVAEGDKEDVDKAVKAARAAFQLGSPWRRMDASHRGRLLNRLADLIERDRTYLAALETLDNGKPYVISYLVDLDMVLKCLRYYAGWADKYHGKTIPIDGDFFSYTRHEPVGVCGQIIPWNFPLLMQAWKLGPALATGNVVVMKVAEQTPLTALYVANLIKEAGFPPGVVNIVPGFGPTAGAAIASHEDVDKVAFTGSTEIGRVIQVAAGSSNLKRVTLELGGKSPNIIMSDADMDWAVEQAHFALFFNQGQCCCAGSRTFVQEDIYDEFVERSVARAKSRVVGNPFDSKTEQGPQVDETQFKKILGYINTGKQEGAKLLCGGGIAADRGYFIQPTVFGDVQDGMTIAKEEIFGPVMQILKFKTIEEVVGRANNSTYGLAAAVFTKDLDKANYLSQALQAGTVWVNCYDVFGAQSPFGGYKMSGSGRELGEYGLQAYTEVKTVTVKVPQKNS
T1 sequence (P11413 whole entry): as the sequence (P11413 whole entry S188F) above, with F188S counted along it
T2 sequence (P11413 whole entry V68M/N126D): as the sequence (P11413 whole entry S188F) above, with V68M, N126D, F188S counted along it
T3 sequence (P11413 whole entry R463H): as the sequence (P11413 whole entry S188F) above, with F188S, R463H counted along it

Compound: SCCNCCc1c[nH]c2ccccc12 [AG1, 2-[2-(1H-indol-3-yl)ethylamino]ethanethiol]
- increase of WT G6PD activity over basal activity (WT G6PD): about 20%
- viability [1]: improved
- dimerization of variant (A- (V68M, N126D) G6PD): promoted their dimerization
- dimerization of variant (Kaiping (R463H) G6PD): promoted their dimerization
- dimerization of variant [2]: promoted their dimerization
- enhancement of enzymatic activity in lymphocyte lysates [3]: 78%
- level of GSH [4]: slightly increased
- viability [5]: mild increase
- effect on dimerization or activity [6]: no effect
- increase of viability of SH-SY5Y cells (SH-SY5Y cells; 1 μM of AG1): 20%
- effect on viability of SH-SY5Y cells (SH-SY5Y cells; G6PD knocked down by siRNA): no effect
